In USRE36744E, “Nasal administration of benzodiazepine hypnotics” (Ribogene, Inc., priority 1994, dated 2000):
“And” between values parts separate entries of the source, which are not always exact repeats. Equal entries are not always repeated.

Experiments:
[1] = Comparative oral versus nasal pharmacokinetics of flurazepam in dogs (plasma, GC assay); assay type: in vivo, beagle dogs
Protocol: The efficacy of oral versus nasal administration was examined using the methodology of Example 2.
Oral Administration Studies: Fifteen mg of flurazepam HCl solution was given to each dog with 50 ml of water. […] The plasma samples were stored frozen until GC assay for flurazepam.
Nasal Administration Studies: One hundred and twenty milligrams of flurazepam HCl powder was dissolved in 4 ml of distilled water. […] Air bubbles generated during mixing were eliminated by centrifugation. The pH of the solution was 1.82.
Flurazepam solution was sprayed into both nostrils of the dogs. The dose given to the dogs was 14.5, 12.4, 12.1 and 12.5 mg as flurazepam HCl. Blood sampling times were same as in the oral study. The plasma samples were frozen until GC assay for flurazepam.
Five ml of hexane was then added and the mixture was vortexed together for one min. and centrifuged for 4 minutes. Four ml of the upper organic layer was then pipetted. Fifty μl of hexane/isoamyl alcohol was used for reconstitution.
Flurazepam in plasma was assayed by a Hewlett Packard model 5830A GC-EC. […] The temperatures for column, injector port and detector were 250°, 310° and 310° C., respectively. The flow rate for argon/methane (95:5) gas was 33 ml/min.

[2] = system: Wistar rats; test: Oral versus nasal hypnotic efficacy in rats (duration of sleeping time, loss and reappearance of the righting reflex); assay type: in vivo
Protocol: A variety of hypnotics including chloral hydrate, sodium pentobarbital and flurazepam were administered to Wistar rats to compare the efficacy of oral and nasal administration.
Oral Administration Studies: The subjects were fasted for approximately 18 hours; water was available ab libitum. Aqueous solutions of chloral hydrate obtained from Sigma Chemical Co., Ltd. and sodium pentobarbital were separately administered to groups of the subject rats using a constant dose volume of […]. Different dosage levels were obtained by varying the aqueous concentrations of therapeutic drug to identify an effective amount of hypnotic.
The animals were then placed in a constant temperature environment of 32° C. The duration of sleeping time (measured by the loss and reappearance of the righting reflex) was recorded for each animal. The results within each group were then averaged.
Nasal Administration Studies: The methodology of the oral studies was repeated with substitution of nasal administration of aqueous solutions through a fine catheter inserted into the nostril. The therapeutic drug was dosed at a constant volume of 50 μl which would deliver an amount of the hypnotic which would be orally effective.

[3] = Comparative oral versus nasal pharmacokinetics of triazolam in beagle dogs (plasma, GC assay); details: for Cmax / half-life / Tmax: dog, plasma
Protocol: In two comparative studies separated in time by over one week; four healthy male, 2-3 year old beagle dogs received oral and nasal doses of triazolam. They were fasted overnight before each study and food was withheld until the end of the experiment. They were restrained in a dog sling during the studies while blood (3 ml) was withdrawn from each dog through a cannula inserted into the cephalic vein.
Oral Administration Studies: Two 0.5 mg triazolam tablets were given to each dog with 50 ml of water. Blood samples were taken from the cephalic vein at 0 min before administration and 15, 30, 45, 60, 120, 180, 240, 300, 360 and 420 min after administration. The plasma samples were stored frozen until gas chromotographic assay for triazolam.
Nasal Administration Studies: Thirty milligrams of triazolam powder was dissolved in 5 ml of PEG 400 warmed at 55°-60° C. After the solution was cooled to room temperature, an equal volume of 1% methocel J5MS (Dow Chemical Company, Midland, Mich.) solution was mixed with the triazolam solution. Air bubbles generated during mixing were removed by centrifugation. The final concentration of triazolam in the solvent mixture was assayed by an HPLC method. An Altex C18, 4.6×150 mm column was used. The mobile phase contained 60% of 0.05 M KH2 PO4 (pH=6.0, T. J. Baker) and 40% acetonitrile (Fisher Scientific). Flow rate of mobile phase was 1 ml/min. The wavelength used was 221 nm.
Using a metered dose inhaler, triazolam solution was sprayed into both nostrils of the dogs. The dose administered was determined by weighting the bottle containing the triazolam solution before and after spraying. […] Blood sampling times were the same as in the oral study. The plasma samples were frozen until GC assay for triazolam.
GC Assay: To extract triazolam, 0.5 ml of plasma, 50 μl of internal standard (55 ng/ml clonazepam in methanol) and 3 ml of hexane/methylene chloride (4:3) were vortexed together for 15 seconds and centrifuged for 4 minutes. The bottom aqueous layer was frozen by dry ice/acetone and the upper organic layer was transferred to another tube containing 1 ml of distilled water. The mixture was vortexed for 15 seconds and centrifuged for 4 minutes. Two ml of the upper organic layer was then pipetted into another tube and evaporated to dryness in an vortex-evaporator. […] of toluene was used for reconstitution.
The amount of triazolam in 3 ml of extract plasma was assayed by an HP model 5830A GC-EC. The glass column used was a 6'×1/4" 2 mm on column w/o liner 6" coil (Anspec) with 3% OV-17 […] and detector were 275°, 310° and 350° C., respectively. The flow rate for argon/methane (95:5) gas 42 ml/min.

[4] = Comparative oral versus nasal pharmacokinetics of midazolam in dogs (plasma, GC assay); assay type: in vivo, beagle dogs; details: for half-life / Tmax / Cmax: dog, plasma
Protocol: Air bubbles generated during mixing were removed by centrifugation.
The dose given to each dog was 7.85, 7.89, 7.22, 5.61 mg free base.
GC Assay--for extraction, 0.5 ml of plasma, 100 μl of internal standard (100 ng/ml flurazepam in methanol) and 0.5 ml of 2N sodium hydroxide were vortexed for 5 seconds. Five ml of hexane was then added and the mixture was vortexed for one min. and centrifuges for 4 minutes. […] Fifty μl of hexane/isoamyl alcohol (80:20) was used for reconstitution.
The temperatures for column, injector port and detector were 250°, 310° and 310° C., respectively. The flow rate for argon/methane (95:5) gas was 33 ml/min.

[5] = dogs, nasal vs oral, dose-normalized
[6] = nasal spray, 12.1-14.5 mg as HCl, individual dog
[7] = nasal spray, 5.61-7.89 mg free base, individual dog
[8] = oral, 5 mg free base equivalent, individual dog

Work on `CCN(CC)CCN1C(=O)CN=C(c2ccccc2F)c2cc(Cl)ccc21` [flurazepam] yielded a Tmax ([1]; dog, plasma, nasal spray, 12.1-14.5 mg as HCl, individual dog, read-out: TMAX NASAL (converted)) of 15 min, a Cmax ([1]; dog, plasma, nasal spray, 12.1-14.5 mg as HCl, mean of four dogs, read-out: CMAX NASAL (MEAN)) of 73.3 ng/mL and a half-life ([1]; dog, plasma, nasal spray, 12.1-14.5 mg as HCl, mean of four dogs, read-out: T1/2 NASAL (MEAN)) of 168 min. For the same molecule, the Tmax ([1]; dog, plasma, nasal spray, 12.1-14.5 mg as HCl, mean of four dogs, read-out: TMAX NASAL (MEAN) (converted)) was 15 min, the Cmax ([1]; dog, plasma, po, 15 mg, oral, 15 mg flurazepam HCl, mean of four dogs, head marked *, read-out: CMAX PO (MEAN)) was 4.97 ng/mL and the Tmax ([1]; dog, plasma, po, 15 mg, oral, 15 mg flurazepam HCl, mean of four dogs, read-out: TMAX PO (MEAN) (converted)) was 26.3 min. For the same molecule, the “Tmax after nasal administration relative to oral route” value ([1]; dogs, nasal vs oral) was “half that of oral route”, the “Plasma levels after nasal administration compared with oral” value (shortened to “Plasma levels … compared with oral”) ([1]; dogs, nasal vs oral, dose-corrected, FIG. 3) was “consistently higher” and the “Mean increase in AUC after nasal administration” value [1, 5] was 51 fold. The “Cmax after oral administration lower than that of nasal route” value ([1]; dogs, oral vs nasal) was 15 times, the “AUC NASAL” value ([1]; nasal spray, 12.1-14.5 mg as HCl, dose-normalized, individual dog) was 922.3 ngmin/ml-mg and 384.9 ngmin/ml-mg and 287.4 ngmin/ml-mg and 314.9 ngmin/ml-mg and the “AUC NASAL (MEAN)” value ([1]; nasal spray, 12.1-14.5 mg as HCl, dose-normalized, mean of four dogs) was 477.4 ngmin/ml-mg. The “CMAX NASAL” value [1, 6] was 161.5 ng/mL and 41.1 ng/mL and 31.5 ng/mL and 59.0 ng/mL, the “T1/2 NASAL” value [1, 6] was 214.7 min and 190.8 min and 163.3 min and 102.6 min and the “AUC PO” value ([1]; oral, 15 mg flurazepam HCl, dose-normalized, estimated up to last data point, individual dog) was 8.60 ngmin/ml-mg and 19.30 ngmin/ml-mg and 4.81 ngmin/ml-mg and 20.00 ngmin/ml-mg. The “AUC PO (MEAN)” value ([1]; oral, 15 mg flurazepam HCl, dose-normalized, estimated up to last data point, mean of four dogs) was 13.20 ngmin/ml-mg, the “TMAX PO” value ([1]; oral, 15 mg flurazepam HCl, individual dog) was 45.0 min and 30.0 min and the “Hypnotic efficacy by oral administration” value [2] was “the rats proved resistant”.

`Cc1nnc2n1-c1ccc(Cl)cc1C(c1ccccc1Cl)=NC2` [triazolam] showed a Cmax ([3]; CMAX NASAL (MEAN), nasal spray, 0.9343-1.532 mg, mean of four dogs, ng/ml) of 27.6 ng/mL, a Cmax ([3]; CMAX NASAL, nasal spray, 0.9343-1.532 mg, individual dog, ng/ml) of 27.2 ng/mL and a half-life ([3]; T1/2 NASAL (MEAN), nasal spray, 0.9343-1.532 mg, mean of four dogs) of 57.3 min. The half-life ([3]; T1/2 NASAL, nasal spray, 0.9343-1.532 mg, individual dog) was 62.7 min, the Tmax ([3]; TMAX NASAL (MEAN), nasal spray, 0.9343-1.532 mg, mean of four dogs, (min)) was 18.8 min and the Tmax ([3]; TMAX NASAL, nasal spray, 0.9343-1.532 mg, individual dog, (min)) was 15 min. For the same molecule, the Tmax ([3]; Time of peak mean plasma concentration, nasal, dogs, mean) was roughly 18.8 min, the Cmax ([3]; po, 1 mg, CMAX PO (MEAN), two 0.5 mg tablets, mean of four dogs, ng/ml) was 7 ng/mL and the Cmax ([3]; po, 1 mg, CMAX PO, two 0.5 mg tablets, individual dog, ng/ml) was 7.6 ng/mL. The half-life ([3]; po, 1 mg, T1/2 PO (MEAN), two 0.5 mg tablets, mean of four dogs) was 67.5 min, the Tmax ([3]; po, 1 mg, TMAX PO (MEAN), two 0.5 mg tablets, mean of four dogs, (min)) was 48.8 min and the Tmax ([3]; po, 1 mg, TMAX PO, two 0.5 mg tablets, individual dog, (min)) was 45 min. For the same molecule, the Tmax ([3]; po, 1 mg, Time of peak mean plasma concentration, dogs, mean) was roughly 48.8 min, the Nasal absorption ([3]; dogs, nasal) was “significant nasal absorption” and the “Mean AUC after nasal administration larger than that of oral route” value ([3]; dogs, nasal vs oral) was 2.4 fold. The “Mean half-life in both routes of administration” value ([3]; dogs, nasal vs oral) was “about the same”, the “Plasma levels … compared with oral” value ([3]; dogs, nasal vs oral, dose-corrected, FIG. 1) was “consistently higher” and the “Variability of oral plasma concentration-time curve compared with nasal” value ([3]; dogs, oral vs nasal, FIG. 1, attributed to gastric emptying of the tablets) was “more variability”. The “TMAX NASAL” value ([3]; nasal spray, 0.9343-1.532 mg, individual dog, (min)) was 30.0, the “CMAX NASAL” value ([3]; nasal spray, 0.9343-1.532 mg, individual dog, ng/ml) was 31.20 and 25.20 and 26.60 and the “TMAX PO” value ([3]; oral, two 0.5 mg tablets, individual dog, (min)) was 60.0 and 30.0. The “CMAX PO” value ([3]; oral, two 0.5 mg tablets, individual dog, ng/ml) was 6.10 and 5.50 and 8.70.

With `Cc1ncc2n1-c1ccc(Cl)cc1C(c1ccccc1F)=NC2` [midazolam] the half-life ([4]; nasal spray, 5.61-7.89 mg free base, individual dog, read-out: T1/2 NASAL) was 36.1 min, the Tmax ([4]; nasal spray, 5.61-7.89 mg free base, individual dog, read-out: TMAX NASAL (converted)) was 15 min and the Cmax ([4]; nasal spray, 5.61-7.89 mg free base, mean of four dogs, read-out: CMAX NASAL (MEAN)) was 101 ng/mL. For the same molecule, the half-life ([4]; nasal spray, 5.61-7.89 mg free base, mean of four dogs, read-out: T1/2 NASAL (MEAN)) was 33.3 min, the Tmax ([4]; nasal spray, 5.61-7.89 mg free base, mean of four dogs, read-out: TMAX NASAL (MEAN) (converted)) was 15 min and the Cmax ([4]; po, 5 mg, oral, 5 mg free base equivalent, mean of four dogs, head marked *, read-out: CMAX PO (MEAN)) was 24.5 ng/mL. The half-life ([4]; po, 5 mg, oral, 5 mg free base equivalent, mean of four dogs, read-out: T1/2 PO (MEAN)) was 33.2 min, the Tmax ([4]; po, 5 mg, oral, 5 mg free base equivalent, mean of four dogs, read-out: TMAX PO (MEAN) (converted)) was 30 min and the “Mean half-life in both routes of administration” value ([4]; dogs, nasal vs oral) was “about the same”. For the same molecule, the “Tmax after nasal administration earlier than after oral administration” value ([4]; dogs, nasal vs oral) was 2 fold, the “Plasma levels … compared with oral” value ([4]; dogs, nasal vs oral, dose-corrected, FIG. 2) was “consistently higher” and the “Mean increase in AUC after nasal administration” value [4, 5] was 2.5 fold. For the same molecule, the “Cmax after oral administration lower than that of nasal route” value ([4]; dogs, oral vs nasal) was 4 times, the “AUC NASAL” value ([4]; nasal spray, 5.61-7.89 mg free base, dose-normalized, individual dog) was 842.9 ngmin/ml-mg and 520.8 ngmin/ml-mg and 338.5 ngmin/ml-mg and 650.8 ngmin/ml-mg and the “AUC NASAL (MEAN)” value ([4]; nasal spray, 5.61-7.89 mg free base, dose-normalized, mean of four dogs) was 588.3 ngmin/ml-mg. For the same molecule, the “CMAX NASAL” value [4, 7] was 159.0 ng/mL and 111.2 ng/mL and 47.1 ng/mL and 87.9 ng/mL, the “T1/2 NASAL” value [4, 7] was 26.8 min and 36.5 min and 33.8 min and the “AUC PO” value ([4]; oral, 5 mg free base equivalent, dose-normalized, individual dog) was 235.6 ngmin/ml-mg and 242.0 ngmin/ml-mg and 157.8 ngmin/ml-mg and 333.2 ngmin/ml-mg. The “AUC PO (MEAN)” value ([4]; oral, 5 mg free base equivalent, dose-normalized, mean of four dogs) was 242.1 ngmin/ml-mg, the “T1/2 PO” value [4, 8] was 43.5 min and 50.6 min and 19.4 min and 19.3 min and the “TMAX PO” value [4, 8] was 15.0 min and 45.0 min and 30.0 min.
